The text below walks through data of patent US10106523B2, “Amide compound” (ASTELLAS PHARMA INC., priority 2014, dated 2018).

The target of one assay is rat EP4 receptor (Rattus norvegicus, UniProt P43114). As to the kind of experiment: In vivo rat EP4 receptor antagonistic action (plasma TNF-α after LPS and EP4 agonist ONO-AE1-437). Set-up: from tissue; host or cells: whole animal (SD rat). The note with it: SD rats, 0.03 mg/kg po, ONO-AE1-437 0.01 mg/kg sc, LPS 0.01 mg/kg iv. The procedure:
Test Example 5: Evaluation Test of In Vivo Rat EP4 Receptor Antagonistic Action
SD rats (male, 6-week old) under non-fasting conditions were used for the test. A test compound dissolved in a mixed solution of PEG 400: 20% Tween 80: 1 mol/L aqueous NaHCO3 solution=1:4:5 was orally administered (po) to the rat at a dose of 0.03 mg/kg (5 mL/kg). After 1 hour, an active metabolite (ONO-AE1-437 (CAS No. 256382-23-7)) of an EP4 agonist ONO-4819 dissolved in physiological saline was subcutaneously administered (sc) to the back of the rat at a dose of 0.01 mg/kg (5 mL/kg). After 30 minutes, Lipopolysaccharide (LPS, 0.01 mg/kg) was administered to the tail vein (2 mL/kg), and after 60 minutes, about 0.5 mL of blood was collected in a heparin-containing tube under anesthesia. The blood sample was centrifuged (1000×g, 10 minutes, 4° C.) to separate the plasma. The TNF-α concentration in the rat plasma was measured by an ELISA kit (DuoSet ELISA, R&D Systems). An inhibitory rate of the test compound group (n=5) with respect to the TNF-α production inhibitory action by the EP4 agonist was calculated by taking the TNF-α concentration of the group (n=5) not treated with ONO-AE1-437 as 100% and taking the TNF-α concentration of the group (n=5) treated with ONO-AE1-437 as 0%.

For a further assay, the target named is T1, rat EP2 receptor (Rattus norvegicus, UniProt Q62928).
T1 construct: expressed in transfected cells
T1 sequence (Q62928 whole entry): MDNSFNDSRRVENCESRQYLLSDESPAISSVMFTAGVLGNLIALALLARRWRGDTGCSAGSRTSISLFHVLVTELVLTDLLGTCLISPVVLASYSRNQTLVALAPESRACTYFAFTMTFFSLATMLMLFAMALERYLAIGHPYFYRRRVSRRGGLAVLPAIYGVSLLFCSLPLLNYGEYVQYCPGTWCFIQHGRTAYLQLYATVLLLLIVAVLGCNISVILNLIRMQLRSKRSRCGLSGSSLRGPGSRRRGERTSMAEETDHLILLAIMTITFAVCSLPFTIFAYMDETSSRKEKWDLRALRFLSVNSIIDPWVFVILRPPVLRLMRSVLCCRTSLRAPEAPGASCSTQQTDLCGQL
As to the kind of experiment: Selectivity test: antagonistic action on rat EP2 receptor (cAMP amount, CHO-K1 cells). The format is cell-based. The note with it: PGE2 100 nmol/L, CHO-K1 cells stably expressing rat EP2; read-out: Concentration up to which no inhibitory action of 50% or more on the increase in intracellular cAMP amount due to PGE2 through the rat EP2 receptor. The procedure: Test Example 9: Evaluation Test of Receptor Antagonistic Action on Rat EP1/EP2/EP3 Receptor (Selectivity Test)
The antagonistic action of Compound A on other subtypes ([…], EP2, and EP3) of the rat-derived PGE2 receptor was evaluated. For EP1 and EP3, the intracellular Ca^2+ amount was used as an indicator, and for EP2, the intracellular cAMP amount was used as an indicator, so as to investigate the action of the test compound.
Construction of Rat EP1, EP2, or EP3 Receptor Expressing Vector: A rat EP1 receptor gene (GenBank accession No.: D88751.1), a rat EP2 receptor gene (GenBank accession No.: NM_031088.1), or a rat EP3 receptor gene (GenBank accession No.: NM_012704.1) were inserted respectively into an expression vector pcDNA3.1-V5-His-TOPO (Invitrogen Inc.).
Construction of Cell Stably Expressing Rat EP1, EP2, or EP3 Receptor: […]
The amount of cAMP contained in the cell lysate was measured with a cAMP HiRange kit in the same manner as in Test Example 4. The ratio of the cAMP amount when the test compound was treated was calculated, by taking the cAMP amount with addition of PGE2 having a final concentration of 100 nmol/L as 100% and taking the cAMP amount without addition of PGE2 as 0%.

Sequence of rat EP4 receptor (P43114 whole entry): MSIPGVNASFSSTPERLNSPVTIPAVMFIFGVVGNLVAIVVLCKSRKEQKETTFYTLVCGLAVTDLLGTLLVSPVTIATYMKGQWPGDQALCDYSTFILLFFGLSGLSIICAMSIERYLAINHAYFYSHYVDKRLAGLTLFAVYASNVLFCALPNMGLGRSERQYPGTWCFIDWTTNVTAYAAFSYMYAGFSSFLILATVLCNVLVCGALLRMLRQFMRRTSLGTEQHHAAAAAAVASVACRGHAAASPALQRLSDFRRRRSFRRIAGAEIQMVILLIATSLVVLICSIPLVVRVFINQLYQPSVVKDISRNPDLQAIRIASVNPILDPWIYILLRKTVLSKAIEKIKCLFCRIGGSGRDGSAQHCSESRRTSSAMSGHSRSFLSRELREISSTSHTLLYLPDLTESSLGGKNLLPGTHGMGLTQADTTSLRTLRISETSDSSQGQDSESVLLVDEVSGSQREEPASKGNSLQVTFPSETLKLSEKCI

In the case of `Cc1nn(Cc2cc3ccccc3cn2)c(C(=O)N[C@@H](C)c2ccc(C(=O)O)cc2)c1Br` [Compound A, 4-[(1S)-1-({[4-bromo-1-(isoquinolin-3-ylmethyl)-3-methyl-1H-pyrazol-5-yl]carbonyl}amino)ethyl]benzoic acid], the “Inhibition of the TNF-α production inhibitory action of the EP4 agonist ONO-AE1-437” value at rat EP4 receptor is given as 38%. Besides, the IC50 on rat EP2 receptor is greater than 10 µM.
